Laboratory results: US20260151375A1, “CDK2 INHIBITORS AND METHODS OF USING THE SAME” (Cedilla Therapeutics, Inc., priority 2022, published 2026)
Where a name gives a salt, the structure may show the parent alone.

Tests used:
CDK2/Cyclin E1 [1] = target: T1, CDK2/Cyclin E1 (Homo sapiens, UniProt P24941); experiment: Caliper Assay (LabChip EZ Reader mobility shift assay), inhibition of CDK2/Cyclin E1 activity; type: biochemical; conditions: 2.5 nM CDK2/Cyclin E1(14-475), 100 μM ATP, 30 min preincubation; read-out: Caliper Assay (CDK2/CCNE1): IC50
T1 construct: purchased 14-475
How it was run: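 Compounds were preincubated 30 min with CDK2/Cyclin E1(14-475), then run for 100 min with 2.5 nM enzyme, 100 μM ATP and 1.5 μM 5-FAM-QSPKKG peptide in HEPES pH 7.5 (final). Reactions were EDTA-stopped and substrate-to-product conversion read by mobility shift. IC50 came from a four-parameter fit.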

Kuramochi cells = experiment: IncuCyte Kuramochi Assay (cell proliferation); type: cell-based; conditions: 72 h, Kuramochi cells labeled with mApple-H2B, cell count, read-out: IncuCyte - Kuramochi RB-WT: IC50
How it was run: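 Cells imaged at 0 and 72 h after compound treatment (10 points, ½ log dilution, 20 μM top), with fluorescent nuclei counted. Fold change in count was normalized to DMSO wells and fitted to dose-response curves to give GI50.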

CDK2/Cyclin E1 [2] = target: T1, CDK2/Cyclin E1; experiment: ADPGLO (CDK2/E1-37 C), ADP-Glo Luminescent Kinase Assay; type: biochemical; conditions: 0.18 nM CDK2/Cyclin E1, 100 μM ATP, Histone H1, 37° C.
How it was run: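 Human CDK2/Cyclin E1 preincubated with inhibitor 60 min at 37 °C, then reacted 90 min at 37 °C with final 0.18 nM enzyme, 100 μM ATP, 1.5 μM Histone H1 in HEPES pH 7.5 buffer. ADP formed read by ADP-Glo luminescence; IC50 from four-parameter fit.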

[3] = test system: mouse models of polycystic kidney disease; conditions: Bukanov et al., Nature 2006; cited from earlier work

SMILES | IC50 (CDK2/Cyclin E1 [1]) | IC50 (CDK2/Cyclin E1 [2]) | IC50 (Kuramochi cells) | arrest of cystic kidney disease [3]
COc1cn[nH]c1C(=O)N1CC(c2nnc(C(F)(F)c3ccc(Cl)c(Cl)c3)o2)C2(C1)CN(C(=O)[C@H]1CC1(F)F)C2 (stereo partly drawn) [I-137, (8-(5-((3,4-dichlorophenyl)difluoromethyl)-1,3,4-oxadiazol-2-yl)-2-((R)-2,2-difluorocyclopropane-1-carbonyl)-2,6-diazaspiro[3.4]octan-6-yl)(4-methoxy-1H-pyrazol-5-yl)methanone] | 1 to 10 µM | > 10 µM | > 10 µM | –
COc1cc(C(=O)N2CC(c3nnc(C(F)(F)c4ccc(Cl)c(Cl)c4)o3)C3(C2)CN(C(=O)[C@H]2CC2(F)F)C3)[nH]n1 (stereo partly shown) [I-138] | > 10 µM | > 100 µM | > 10 µM | –
O=C(c1cc(C(F)(F)F)n[nH]1)N1CC(c2nnc(C(F)(F)c3ccc(Cl)c(Cl)c3)o2)C2(CN(CC3CCCO3)C2)C1 (stereo not shown) [I-142] | > 100 µM | > 10 µM | > 10 µM | –
CC[C@H](CO)Nc1nc(NCc2ccccc2)c2ncn(C(C)C)c2n1 [roscovitine] | – | – | – | effective arrest of cystic kidney disease

Continued, in another order:

IC50 (CDK2/Cyclin E1 [1]) | IC50 (CDK2/Cyclin E1 [2]) | SMILES | IC50 (Kuramochi cells) | arrest of cystic kidney disease [3]
> 100 µM | > 100 µM | O=C(c1ccn[nH]1)N1CC(c2nnc(C(F)(F)c3ccc(Cl)c(Cl)c3)o2)C2(CN(CC3CCCO3)C2)C1 (stereo not shown) [I-139, (8-(5-((3,4-dichlorophenyl)difluoromethyl)-1,3,4-oxadiazol-2-yl)-2-((tetrahydrofuran-2-yl)methyl)-2,6-diazaspiro[3.4]octan-6-yl)(1H-pyrazol-5-yl)methanone formate] | > 10 µM | –
> 10 µM | > 10 µM | O=C(c1cnc(O)cn1)N1CC(c2nnc(C(F)(F)c3ccc(Cl)c(Cl)c3)o2)C2(CN(CC3CCCO3)C2)C1 (stereo not shown) [I-140] | > 10 µM | –
> 100 µM | > 10 µM | O=C(c1cn[nH]c1C(F)(F)F)N1CC(c2nnc(C(F)(F)c3ccc(Cl)c(Cl)c3)o2)C2(CN(CC3CCCO3)C2)C1 (stereo not shown) [I-141] | > 10 µM | –
> 100 µM | > 10 µM | O=C(c1cn[nH]c1)N1CC(c2nnc(C(F)(F)c3ccc(Cl)c(Cl)c3)o2)C2(CN(CC3CCCO3)C2)C1 (stereo not shown) [I-143] | > 10 µM | –
